Molecules are shown by their SMILES. Bounds are passed on as bounds.

The test system of one data set is ICP0-null HSV-N212eGFP. Type of data set: cell-based, Herpes Simplex Virus type-1 (HSV-1).
The next data set has as its system MVA-eGFP. In kind it is cell-based, modified vaccine ankara (MVA). To be noted: human renal carcinoma (786-0) cells; infected after 4 hours, MOI 0.01; 48 h and 64 h after infection.
In data set [1] the test system is adenovirus expressing firefly luciferase. The experiment in a line: Adenovirus transduction in A549 cancer cells (MOI 0.1, luciferase luminescence). In kind it is cell-based, Adenovirus Serotype 5. To be noted: pre-treated 2 hours at 21 uM to 120 or 160 uM, 40 hours post-infection.
Data set [2] shares this test system. In kind it is cell-based, Adenovirus Serotype 5.
For data set [3] the test system is unchanged. The experiment in a line: Adenovirus transduction in normal mouse muscle tissue cores. In kind it is cell-based, Adenovirus Serotype 5. To be noted: 10, 20 or 40 uM for 4 hours, 1×10^7 pfu/well, 36 hours post-infection.
In data set [4] the test system is adeno-associated virus expressing firefly luciferase. In kind it is cell-based, AAV serotype 6.
Data set [5] has as its system Salmonella typhimurium strains TA98 and TA100.
In data set [6] the test system is adenovirus expressing firefly luciferase. Put plainly: Adenovirus transduction in normal mouse brain tissue cores. In kind it is cell-based, Adenovirus Serotype 5. To be noted: 10, 20 or 40 uM for 4 hours, 1×10^7 pfu/well, 36 hours post-infection.
In a further data set the test system is IFN-responsive promoter. Conditions: cited from earlier work.
The subject of data set [7] is virus-induced cellular genes. Conditions: gene expression microarrays; cited from earlier work.
The test system of data set [8] is VSV-Maraba-MG1-eGFP virus. In kind it is cell-based, Maraba MG-1.
Data set [9] deals with IFN-responsive U251 human glioma cells. To be noted: cited from earlier work.
For the next data set, the system named is A/FM1 (H1N1). Also on record: species or system Influenza A H1N1. Conditions: in vivo.
Data set [10] concerns Influenza H1N1 A/Puerto Rico/8/34 (PR8). Type of data set: cell-based.

As to `C#CCN1C(=O)C(Cl)=C(Cl)C1O` (stereo not drawn) [MD01151, 3,4-Dichloro-5-hydroxy-1-prop-2-ynyl-1,5-dihydro-pyrrol-2-one], the “HSV-1 replication (eGFP fluorescence and HSV titers)” value (“HSV-1 replication” for short) in the data set on ICP0-null HSV-N212eGFP is given as “enhance Herpes Simplex Virus type-1 (HSV-1) replication”. Moreover, the “MVA vaccine strain infection of cells (eGFP fluorescence)” value (“MVA vaccine strain infection of cells” below) with MVA-eGFP is given as “can be enhanced”. For the same compound, the “Adenovirus transduction in cancer cells (fold increase luciferase luminescence vs adenovirus alone)” value in data set [1] is listed as “enhance Adenovirus transduction”.

With `O=C1C(Cl)=C(Cl)C(O)N1CCc1ccccc1` (stereo not drawn) [MD03009, 3,4-dichloro-5-hydroxy-1-phenethyl-1H-pyrrol-2(5H)-one], in the data set with MVA-eGFP, the “MVA vaccine strain infection of cells” value is reported as “can be enhanced”. The “Adenovirus transduction in cancer cells (fold increase luciferase luminescence vs adenovirus alone)” value in data set [1] is “enhance Adenovirus transduction”.

`O=C1C(Cl)=C(Cl)C(O)N1Cc1ccccc1` (stereo not drawn) [MD01145, α,β-dichloro-γ-hydroxy-N-benzyl-crotonic lactam]: in data set [2], the “adenovirus vector production (luciferase activity, fold increase vs untreated)” value was “enhance the production”. Moreover, the “Adenovirus transduction in normal muscle tissue” value in [3] is given as “enhance adenovirus transduction”. In the data set on ICP0-null HSV-N212eGFP, the “HSV-1 replication” value was “enhance Herpes Simplex Virus type-1 (HSV-1) replication”. In addition, the “MVA vaccine strain infection of cells” value in the data set on MVA-eGFP is “can be enhanced”. The “adeno-associated virus vector production (luciferase activity, fold increase vs untreated)” value in data set [4] was “enhance the production”. For the same compound, in data set [5], the “dose-dependent increase in the number of revertants” value was “does not produce a dose-dependent increase” and the mutagenic potential entry was “not mutagenic”. The “Adenovirus transduction in normal brain tissue” value in data set [6] is on record as “enhance Adenovirus transduction”.

Consider `O=C1OC(c2ccccc2)C(Cl)=C1Cl` (stereo not drawn) [VSe1, 3,4-dichloro-5-phenyl-2,5-dihydrofuran-2-one, reference compound], for which the “adenovirus vector production (luciferase activity, fold increase vs untreated)” value in data set [2] is “enhance the production”. In addition, the IFN-induced transcriptional activity result in the data set on IFN-responsive promoter is “inhibit IFN-induced transcriptional activity”. Also, the “virus-induced cellular genes whose transcription is repressed” value in data set [7] is on record as greater than 95%. The “HSV-1 replication” value with ICP0-null HSV-N212eGFP is recorded as “enhance Herpes Simplex Virus type-1 (HSV-1) replication”. Besides, the “MVA vaccine strain infection of cells” value in the data set on MVA-eGFP is “can be enhanced”. Also, the “replication / spread of oncolytic virus MG1 (eGFP expression)” value in data set [8] is “enhance the replication”. For the same compound, the “adeno-associated virus vector production (luciferase activity, fold increase vs untreated)” value in data set [4] is “enhance the production”. Also, the “Adenovirus transduction in cancer cells (fold increase luciferase luminescence vs adenovirus alone)” value in data set [1] is reported as “enhance Adenovirus transduction”. In [9], the “IFN-mediated protection of cells to VSVΔ51 infection” value is listed as “suppress IFN-mediated protection”.

For `COc1ccccc1CN1C(=O)C(Cl)=C(Cl)C1O` (stereo not drawn) [CM01025, 3,4-Dichloro-5-hydroxy-1-(2-methoxy-benzyl)-1,5-dihydro-pyrrol-2-one], the “HSV-1 replication” value with ICP0-null HSV-N212eGFP is “enhance Herpes Simplex Virus type-1 (HSV-1) replication”.

For the compound `O=C1C(Cl)=C(Cl)C(O)N1CCN1CCOCC1` (stereo not drawn) [MD03011, 3,4-dichloro-5-hydroxy-1-(2-morpholinoethyl)-1H-pyrrol-2(5H)-one], the “Adenovirus transduction in normal muscle tissue” value in [3] is reported as “enhance adenovirus transduction”. The “MVA vaccine strain infection of cells” value in the data set on MVA-eGFP was “can be enhanced”. Also, the “A/FM1 (H1N1) production in ovo (plaque assay titer, HA titer by HPLC AUC)” value in the data set with A/FM1 (H1N1) is “enhances A/FM1 (H1N1) production”. The “Adenovirus transduction in cancer cells (fold increase luciferase luminescence vs adenovirus alone)” value in [1] is “enhance Adenovirus transduction”. For the same compound, the “Adenovirus transduction in normal brain tissue” value in [6] is “enhance Adenovirus transduction”.

With `O=c1[nH]ncc(Cl)c1Cl` [MD02026, 4,5-Dichloro-2H-pyridazin-3-one], the “adenovirus vector production (luciferase activity, fold increase vs untreated)” value in data set [2] was “enhance the production”. In addition, the “Adenovirus transduction in normal muscle tissue” value in [3] is “enhance adenovirus transduction”. Moreover, the “MVA vaccine strain infection of cells” value in the data set on MVA-eGFP is on record as “can be enhanced”. In addition, the “adeno-associated virus vector production (luciferase activity, fold increase vs untreated)” value in data set [4] is given as “enhance the production”. In data set [6], the “Adenovirus transduction in normal brain tissue” value is “enhance Adenovirus transduction”.

Turning to `CN1C(=O)C(Cl)=C(Cl)C1O` (stereo not drawn) [CM01031, 3,4-Dichloro-5-hydroxy-1-methyl-1,5-dihydro-pyrrol-2-one], in data set [10], the “PR8 titers, MDCK (NBL-2) cells” value is “Enhancement of PR8” and the “PR8 titers, MDCK.2 cells” value is recorded as “Enhancement of PR8”.

As to `COS(C)(=O)=O` [MMS, methyl methanesulfonate, reference compound], the “reversion rate (number of revertants)” value in data set [5] was “high number of revertants”.

(Values after patent publication US12195451B2 (priority 2015, dated 2025).)
